Measured values: patent US11725015B2, “Macrocyclic compound and uses thereof” (President and Fellows of Harvard College, priority 2017, dated 2023)

Legend:
[1] = test system: OSC-19 subcutaneous xenograft; experiment: Antitumor activity against OSC-19 subcutaneous xenograft model in mice as monotherapy; format: in vivo; details: Q7D×2
Procedure: A human squamous cell carcinoma of the head and neck (SCCHN) cell line OSC-19, which had been cultured in an DMEM/Ham's F-12 (1:1) medium containing 10% FBS, and penicillin and streptomycin, was adjusted to a concentration of 1×10^8 cells/ml with PBS to prepare a cell suspension, and the suspension was mixed with Matrigel™ (BD Bioscience, #366237) in a ratio of 1:1 to prepare a cell suspension in a concentration of 5×10^7 cell/mL. The cell suspension was inoculated in a volume of 100 μL into a subcutaneous part of a right flank of nude mice, 5 weeks of ages (CAnN.Cg-Foxnlnu/CrlCrlj, female, Charles River Laboratories Japan, Inc.).
On the basis of the volumes of tumors obtained on the first day of administration, the mice were grouped such that averages of the tumor volumes were substantially equal among the groups. The experiment was conducted on groups each consisting of 6 mice. Test compound was dissolved in saline and intravenously administered at doses from 0.06 mg/kg to 0.18 mg/kg once a week for 2 weeks (Q7D×2 schedule).

EDA-fibronectin = experiment: Effect on EDA-fibronectin in the FaDu subcutaneous model in mice; format: in vivo; details: Compound (1) 180 μg/kg + CTX 10 mg/kg on Day 1, five days after, compared with control tumors
Procedure: (§1) A human squamous cell carcinoma of the head and neck (SCCHN) cell line FaDu, which had been cultured in an RPMI-1640 medium containing 10% FBS, and penicillin-streptomycin (culture medium), was adjusted to a concentration of 5×10^7 cells/mL with culture medium to prepare a cell suspension. The cell suspension was inoculated in a volume of 100 μL into a subcutaneous part of a right flank of nude mice, 6 weeks of ages (CAnN.Cg-Foxnlnu/CrlCrlj, female, Charles River Laboratories Japan, Inc.). Ten days after cell inoculation, the mice were grouped such that averages of the tumor volumes were substantially equal among the groups. The experiment was conducted on groups each consisting of 5 mice. Compound (1) was dissolved in DMSO and a solution was stored in the freezer before use. […] Five days after the single administration, tumor samples were collected and fixed with IHC Zinc Fixative (BD Pharmingen) at 4° C. for 24 hr. Paraffin-embedded tissues were sectioned (3 μm), mounted on positively charged slides, and air-dried. Sections were deparaffinized, conditioned and the antigens were retrieved using microwave with 1 mM EDTA at pH 6.0 for Tenascin-C. For EDA-fibronectin, the antigens retrieval procedure was not necessary. […]

[2] = test system: KPL-4 subcutaneous xenograft; experiment: Antitumor effects in the KPL-4 xenograft model in mice as monotherapy; format: in vivo
Procedure: A human HER-2 positive breast cancer cell line KPL-4, which had been cultured in a DMEM containing 10% FBS, and penicillin-streptomycin, was adjusted to a concentration of 1×10^8 cells/mL with Hanks' Balanced Salt Solution to prepare a cell suspension. The cell suspension was inoculated in a volume of 100 μL into a subcutaneous part of a right flank of nude mice, 8 weeks of ages (CAnN.Cg-Foxnlnu/CrlCrlj, female, Charles River Laboratories Japan Inc.). Eleven days after cell inoculation (Day 1), the shortest diameter and the longest diameter of a tumor in each mouse were measured by using an electronic digital caliper (Digimatic™ caliper, Mitutoyo Corporation), so as to calculate the volume of the tumor in accordance with the following calculation formulae: Tumor volume (mm^3)=Longest diameter (mm)×Shortest diameter (mm)×Shortest diameter (mm)/2 Relative tumor volume (RTV)=Tumor volume (day X)/Tumor volume (the first day) Relative body weight (RBW)=Body weight (day X)/Body weight (the first day)
On the basis of the volumes of tumors obtained on Day 1, the mice were grouped such that averages of the tumor volumes were substantially equal among the groups. The experiment was conducted on groups each consisting of six mice. The test compound was dissolved in DMSO and a solution was stored in the freezer before use. Immediately before the administration, the stock solution was diluted with saline. The test compound in saline was intravenously once-weekly administered at 20 μg/kg, 60 μg/kg, or 180 μg/kg for 2 weeks (on Day 1 and Day 8).

[3] = test system: HSC-2-Luc orthotopic transplantation (tongue); experiment: HSC-2 orthotopic transplantation mouse model; format: in vivo, mice
[4] = test system: KPL-4 subcutaneous xenograft; experiment: Antitumor activity in KPL-4 subcutaneous xenograft model in combination with trastuzumab in mice; format: in vivo
Procedure: A human HER-2 positive breast cancer cell line KPL-4, which had been cultured in an RPMI-1640 medium containing 10% FBS, and penicillin and streptomycin, was adjusted to a concentration of 1×10^8 cells/mL with Hank's Balanced Salt Solution to prepare a cell suspension. The cell suspension was inoculated in a volume of 100 μL into a subcutaneous part of a right flank of nude mice, 7 weeks of ages (CAnN.Cg-Foxnlnu/CrlCrlj, female, Charles River Laboratories Japan, Inc.).
On the basis of the volumes of tumors obtained on the first day of administration, the mice were grouped such that averages of the tumor volumes were substantially equal among the groups. The experiment was conducted on groups each consisting of 6 mice. Each test compound was dissolved in DMSO and a solution was stored at the freezer before use. Immediately before the administration, the stock solution was diluted in saline.

Tenascin-C = experiment: Effect on Tenascin-C in the FaDu subcutaneous model in mice; format: in vivo; details: Compound (1) 180 μg/kg + CTX 10 mg/kg on Day 1, five days after, compared with control tumors
Procedure: as §1

C=C1C[C@@H]2CC[C@@]34C[C@H]5O[C@H]6[C@@H](O3)[C@H]3O[C@H](CC[C@@H]3O[C@H]6C5O4)CC(=O)O[C@@H]3[C@@H](C)[C@@H]4O[C@@H]5C[C@]6(C[C@@H]7O[C@]8(C[C@H](C)[C@@H]9O[C@H](CN)[C@H](O)C[C@@H]9O8)C[C@H](C)[C@@H]7O6)O[C@@H]5C[C@@H]4O[C@H]3C[C@H]3O[C@@H](CC[C@@H]1O2)C[C@@H](C)C3=C [Compound (1)]
Tumor Regression (%) ([1]; 0.06 mg/kg intravenously): 59%
Tumor Regression (%) ([1]; 0.18 mg/kg intravenously): 90%
expression level of ED-A fibronectin (EDA-fibronectin): reduced
antitumor effect ([2]; 60 μg/kg intravenously on Day 1 and Day 8): tumor regression was observed
antitumor effect ([2]; 180 μg/kg intravenously on Day 1 and Day 8): tumor regression was observed
eradication of xenograft tumors ([2]; 180 μg/kg, on Day 15): completely eradicated the xenograft tumors in all mice
survived mice on Day 100 ([3]; Compound (1)+CTX combination group, n=16): 10
bioluminescence signal ([3]; with cetuximab, after Day 14): clearly reduced the bioluminescence signal in all mice
Tumor Regression (%) ([4]; 0.09 mg/kg intravenously + trastuzumab 10 mg/kg): 83%
Tumor Regression (%) ([4]; 0.09 mg/kg intravenously, without trastuzumab): 43%
Tumor Regression (%) ([4]; 0.18 mg/kg intravenously + trastuzumab 10 mg/kg): 100%
Tumor Regression (%) ([4]; 0.18 mg/kg intravenously, without trastuzumab): 87%
expression level of Tenascin-C (Tenascin-C): reduced
